US9718809B2, “Bisarylsulfonamides useful in the treatment of inflammation and cancer” (Kancera AB, priority 2011, dated 2017)

What was measured:
F-2,6-P2 in PANC-1 cells = test: Quantification of F-2,6-P2 (Van Schaftingen coupled enzyme assay) in PANC-1 cells; assay type: cell-based, human; settings: Homo sapiens; PANC-1 cells; read-out: IC50 based on quantification of F-2,6-P2
Procedure, shortened: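 PANC-1 cells (~25 000/well) starved 18 h in glucose-free 0.25% FBS medium, treated 1 h with compound (50 and 10 μM, or dose response from 50 μM; 0.5% DMSO), then glucose added for 2 h at 37 °C. Cells lysed in NaOH; F-2,6-P2 quantified by PPi-PFK coupled NADH-consumption spectrophotometry.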

SW620 cells = test: Inhibition of cancer cell proliferation, total cellular protein (Sulphorhodamine B), SW620; settings: Homo sapiens, SW-620, 72 h, read-out: IC50 based on quantitation of total cellular protein after treatment
Protocol: To assess the antiproliferative response elicited by the compounds of the present invention in different tumour cell lines, total cellular protein in samples was quantified using the Sulphorhodamine B kit, TOX6, (Sigma-Aldrich). The protocol is based on quantitation of total cellular protein after indicated treatments and incubation times using the Sulphorhodamine B kit, TOX6, (Sigma-Aldrich).
Briefly, after protein precipitation using TCA according to the manufacturer's instructions, the sulphorhodamine dye (80 μL/well) was added to the air-dried wells. After 20 min incubation at room temperature, the dye was discarded and the samples were gently rinsed with 1% HOAc until clear. After air drying, bound dye was solubilised in 200 μL 10 mM Tris base, and the absorbance of dye was measured at 565 nm. To quantify growth, samples were collected also at t=0 h, and the resulting absorbance was set to 100%. […]
After protein precipitation using TCA according to the manufacturer's instructions, the sulforhodamine B dye (50 μL/well) was added to the air-dried wells. […] After air drying, bound dye was solubilised in 100 μL 10 mM Tris base, and the absorbance of dye was measured at 530 nm and a background absorbance (subtract from the measurement at 530 nm) at 690 nm. To quantify growth, samples were collected also at t=0 h.

- IC50 (F-2,6-P2 in PANC-1 cells): 1.5 µM
- IC50 (SW620 cells): 11.8 µM
Structure (SMILES): COC(=O)c1ccc(NS(=O)(=O)c2cc(Cl)c(Cl)s2)cc1OC(C)=O [Example 132, Methyl 2-(acetyloxy)-4-{[(4,5-dichlorothiophen-2-yl)sulfonyl]amino}benzoate]
